Source: patent publication US7015237B2, “Pyridine matrix metalloproteinase inhibitors” (Warner-Lambert Company, priority 2001, dated 2006)

What follows are compounds tested against MMP-13 (catalytic domain of collagenase 3) (Homo sapiens, UniProt P45452) (assay: Thiopeptolide substrate hydrolysis assay, MMP-13). Conditions: catalytic domain of collagenase 3; Table 1; read-out: MMP-13 IC50.
Type: biochemical
Excerpt: The assays used to evaluate the biological activity of the invention compounds are well known and routinely used by those skilled in the study of MMP inhibitors and their use to treat clinical conditions.
The assays measure the amount by which a test compound reduces the hydrolysis of a thiopeptolide substrate catalyzed by a matrix metalloproteinase enzyme. Such assays are described in detail by Ye et al., in Biochemistry, 1992; 31(45):11231–11235, which is incorporated herein by reference.
Thiopeptolide substrates show virtually no decomposition or hydrolysis at or below neutral pH in the absence of a matrix metalloproteinase enzyme. A typical thiopeptolide substrate commonly utilized for assays is Ac-Pro-Leu-Gly-thioester-Leu-Leu-Gly-OEt. A 100-μL assay mixture will contain 50 mM of N-2-hydroxyethylpiperazine-N′-2-ethanesulfonic acid buffer (“HEPES”) at pH 7.0, 10 mM CaCl2, 100 μM thiopeptolide substrate, and 1 mM 5,5′-dithio-bis-(2-nitro-benzoic acid) (DTNB). The thiopeptolide substrate concentration may be varied from, for example, 10 to 800 μM to obtain Km and Kcat values. The change in absorbance at 405 nm is monitored on a Thermo Max microplate reader (Molecular Devices, Menlo Park, Calif.) at room temperature (22° C.). The calculation of the amount of hydrolysis of the thiopeptolide substrate is based on E412=13600 M^−1 cm^−1 for the DTNB-derived product 3-carboxy-4-nitrothiophenoxide. Assays are carried out with and without matrix metalloproteinase inhibitor compounds, and the amount of hydrolysis is compared for a determination of inhibitory activity of the test compounds.
In the tables, MMP-1 refers to full-length interstitial collagenase; MMP-3 refers to the catalytic domain of stromelysin-1; MMP-13 refers to the catalytic domain of collagenase 3. Test compounds were evaluated at various concentrations to determine their respective IC50 values.
With COc1cccc(CNC(=O)c2ccnc(C(=O)NCc3cccc(OC)c3)c2)c1 [Example 1, Pyridine-2,4-dicarboxylic acid bis-(3-methoxy-benzylaride)] the IC50 was 0.035 µM.
COc1ncc(C(=O)NCc2ccc3c(c2)OCO3)cc1C(=O)NCc1ccc2c(c1)OCO2 [Example 4, 2-Methoxy-pyridine-3,5-dicarboxylic acid bis-[(1,3-benzodioxol-5-ylmethyl)-amide]] was tested, and the IC50 was 0.23 µM.
O=C(NCc1ccc2c(c1)OCO2)c1ccnc(C(=O)NCc2ccc3c(c2)OCO3)c1 [Example 8, Pyridine-2,4-dicarboxylic acid bis-[(1,3-benzodioxol-5-ylmethyl)-amide]] showed an IC50 of 0.014 µM.

Same assay, conditions: catalytic domain, human; combinatorial compounds of Example 14; Table 2; read-out: MMP-13 IC50 CD/Human
With COc1cccc(CNC(=O)c2ccnc(C(=O)NCc3cccc(OC)c3)c2)c1 [Example 14.1, Pyridine-2,4-dicarboxylic acid bis-(3-methoxy-benzylamide)] the IC50 was 0.038 µM.
Work on O=C(NCc1ccc2c(c1)OCO2)c1ccnc(C(=O)NCc2ccc3c(c2)OCO3)c1 [Example 14.2, Pyridine-2,4-dicarboxylic acid bis-[(1,3-benzodioxol-5-ylmethyl)-amide]] yielded an IC50 of 0.033 µM.
O=C(NCc1ccc(Cl)cc1)c1ccnc(C(=O)NCc2ccc(Cl)cc2)c1 [Example 14.4, Pyridine-2,4-dicarboxylic acid bis-(4-chloro-benzylamide)] gave an IC50 of 0.3 µM.
O=C(NCc1cccc2ccccc12)c1ccnc(C(=O)NCc2cccc3ccccc23)c1 [Example 14.6, Pyridine-2,4-dicarboxylic acid bis-[(naphthalen-1-ylmethyl)-amide]] gave an IC50 of 30 µM.
COc1ccc(CNC(=O)c2ccnc(C(=O)NCc3ccc(OC)cc3)c2)cc1 [Example 14.8, Pyridine-2,4-dicarboxylic acid bis-(4-methoxy-benzylamide)] showed an IC50 of 0.13 µM.
O=C(NCc1cccc(F)c1)c1ccnc(C(=O)NCc2cccc(F)c2)c1 [Example 14.9, Pyridine-2,4-dicarboxylic acid bis-(3-fluoro-benzylamide)] gave an IC50 of 0.18 µM.
Work on O=C(NCCc1ccccc1Oc1ccccc1)c1ccnc(C(=O)NCCc2ccccc2Oc2ccccc2)c1 [Example 14.12, Pyridine-2,4-dicarboxylic acid bis-{[2-(2-phenoxy-phenyl)-ethyl]-amide}] yielded an IC50 of 30 µM.
CCc1ccc(CCNC(=O)c2ccnc(C(=O)NCCc3ccc(CC)cc3)c2)cc1 [Example 14.19, Pyridine-2,4-dicarboxylic acid bis-{[2-(4-ethyl-phenyl)-ethyl]-amide}] was tested, and the IC50 was 30 µM.
O=C(NC(Cc1ccccc1)c1ccccc1)c1ccnc(C(=O)NC(Cc2ccccc2)c2ccccc2)c1 (centres unmarked) [Example 14.21, Pyridine-2,4-dicarboxylic acid bis-[(1,2-diphenyl-ethyl)-amide]] showed an IC50 of 30 µM.
O=C(NCc1ccc(Cl)cc1Cl)c1ccnc(C(=O)NCc2ccc(Cl)cc2Cl)c1 [Example 14.22, Pyridine-2,4-dicarboxylic acid bis-(2,4-dichloro-benzylamide)] gave an IC50 of 30 µM.
Work on O=C(NCc1ccccc1-c1ccccc1)c1ccnc(C(=O)NCc2ccccc2-c2ccccc2)c1 [Example 14.23, Pyridine-2,4-dicarboxylic acid bis-[(biphenyl-2-ylmethyl)-amide]] yielded an IC50 of 30 µM.
Compound O=C(NCc1cccc(Cl)c1)c1ccnc(C(=O)NCc2cccc(Cl)c2)c1 [Example 14.25, Pyridine-2,4-dicarboxylic acid bis-(3-chloro-benzylamide)] has an IC50 of 0.074 µM.
In the case of O=C(NCc1ccncc1)c1ccnc(C(=O)NCc2ccncc2)c1 [Example 14.32, Pyridine-2,4-dicarboxylic acid bis-[(pyridin-4-ylmethyl)-amide]], the IC50 is reported as 2 µM.
O=C(NCc1cccc(C(F)(F)F)c1)c1ccnc(C(=O)NCc2cccc(C(F)(F)F)c2)c1 [Example 14.35, Pyridine-2,4-dicarboxylic acid bis-(3-trifluoromethyl-benzylamide)] showed an IC50 of 0.31 µM.
O=C(NCc1cccc(OC(F)F)c1)c1ccnc(C(=O)NCc2cccc(OC(F)F)c2)c1 [Example 14.37, Pyridine-2,4-dicarboxylic acid bis-(3-difluoromethoxy-benzylamide)] gave an IC50 of 0.26 µM.
Compound O=C(NCc1ccc(F)c(C(F)(F)F)c1)c1ccnc(C(=O)NCc2ccc(F)c(C(F)(F)F)c2)c1 [Example 14.39, Pyridine-2,4-dicarboxylic acid bis-(4-fluoro-3-trifluoromethyl-benzylamide)] has an IC50 of 0.28 µM.
O=C(NCc1ccc(F)c(Cl)c1)c1ccnc(C(=O)NCc2ccc(F)c(Cl)c2)c1 [Example 14.42, Pyridine-2,4-dicarboxylic acid bis-(3-chloro-4-fluoro-benzylamide)] showed an IC50 of 0.04 µM.
Nc1ccc(CNC(=O)c2ccnc(C(=O)NCc3ccc(N)cc3)c2)cc1 [Example 14.44, Pyridine-2,4-dicarboxylic acid bis-(4-amino-benzylamide)] showed an IC50 of 70 µM.
Work on COc1ccc(C(NC(=O)c2ccnc(C(=O)NC(c3ccc(OC)cc3)c3ccc(OC)cc3)c2)c2ccc(OC)cc2)cc1 [Example 14.46, Pyridine-2,4-dicarboxylic acid bis-{[bis-(4-methoxy-phenyl)-methyl]-amide}] yielded an IC50 of 30 µM.
With O=C(NCCC(c1ccccc1)c1ccccc1)c1ccnc(C(=O)NCCC(c2ccccc2)c2ccccc2)c1 [Example 14.47, Pyridine-2,4-dicarboxylic acid bis-[(3,3-diphenyl-propyl)-amide]] the IC50 was 30 µM.
Compound O=C(NCc1ccccc1F)c1ccnc(C(=O)NCc2ccccc2F)c1 [Example 14.50, Pyridine-2,4-dicarboxylic acid bis-(2-fluoro-benzylamide)] has an IC50 of 84 µM.
Compound Cc1ccc(CNC(=O)c2ccnc(C(=O)NCc3ccc(C)cc3)c2)cc1 [Example 14.54, Pyridine-2,4-dicarboxylic acid bis-(4-methyl-benzylamide)] has an IC50 of 1.5 µM.
O=C(NCc1cccnc1)c1ccnc(C(=O)NCc2cccnc2)c1 [Example 14.57, Pyridine-2,4-dicarboxylic acid bis-[(pyridin-3-ylmethyl)-amide]] showed an IC50 of 34 µM.
Work on O=C(NCc1cccs1)c1ccnc(C(=O)NCc2cccs2)c1 [Example 14.60, Pyridine-2,4-dicarboxylic acid bis-[(thiophen-2-ylmethyl)-amide]] yielded an IC50 of 13 µM.
O=C(NCc1ccc(C(F)(F)F)cc1)c1ccnc(C(=O)NCc2ccc(C(F)(F)F)cc2)c1 [Example 14.61, Pyridine-2,4-dicarboxylic acid bis-(4-trifluoromethyl-benzylamide)] was tested, and the IC50 was 30 µM.
In the case of Cc1ccc(CNC(=O)c2ccnc(C(=O)NCc3ccc(C)o3)c2)o1 [Example 14.62, Pyridine-2,4-dicarboxylic acid bis-[(5-methyl-furan-2-ylmethyl)-amide]], the IC50 is reported as 88 µM.
CC(NC(=O)c1ccnc(C(=O)NC(C)c2cccc3ccccc23)c1)c1cccc2ccccc12 (centres unmarked) [Example 14.65, Pyridine-2,4-dicarboxylic acid bis-[(1-naphthalen-1-yl-ethyl)-amide]] showed an IC50 of 30 µM.
Work on O=C(NCCc1ccc(O)cc1)c1ccnc(C(=O)NCCc2ccc(O)cc2)c1 [Example 14.66, Pyridine-2,4-dicarboxylic acid bis-{[2-(4-hydroxy-phenyl)-ethyl]-amide}] yielded an IC50 of 30 µM.
Compound O=C(NCc1cccc(OC(F)(F)F)c1)c1ccnc(C(=O)NCc2cccc(OC(F)(F)F)c2)c1 [Example 14.67, Pyridine-2,4-dicarboxylic acid bis-(3-trifluoromethoxy-benzylamide)] has an IC50 of 4 µM.
